Measurements: paper PMC10578352, “Identification of a Protein Arginine Methyltransferase 7 (PRMT7)/Protein Arginine Methyltransferase 9 (PRMT9) Inhibitor” (Journal of Medicinal Chemistry, 2023)

Key:
Assay type in all cases: biochemical
[1] = target: T1, SET7/9/KMT7 (Homo sapiens, UniProt Q8WTS6); experiment: HotSpot KMT activity assay, SET7/9; settings: read-out: % SET7/9 residual activity
T1 construct: the human recombinant SET7/9 (residues 2–366, C-terminus); GST (N); His (C); purchased Reaction Biology Corporation
T1 sequence (Q8WTS6 2-366): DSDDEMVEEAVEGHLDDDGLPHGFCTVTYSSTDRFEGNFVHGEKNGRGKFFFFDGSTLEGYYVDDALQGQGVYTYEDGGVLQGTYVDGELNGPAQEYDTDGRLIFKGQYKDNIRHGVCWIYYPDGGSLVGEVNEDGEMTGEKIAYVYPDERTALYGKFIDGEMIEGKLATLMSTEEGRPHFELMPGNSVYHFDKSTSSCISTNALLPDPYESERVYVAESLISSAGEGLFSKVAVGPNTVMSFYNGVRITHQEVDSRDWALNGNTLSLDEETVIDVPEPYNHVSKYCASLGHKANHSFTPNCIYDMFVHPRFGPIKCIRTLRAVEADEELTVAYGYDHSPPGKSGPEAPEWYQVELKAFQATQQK
Text: (§1) ; MW = 35.4 kDa; Genbank Accession # NM_018489), or the human recombinant EZH2-containing five-member polycomb repressive complex 2 (including EZH2 residues 2–746, AEBP2 2–517, EED 2–441, RbAp48 2–425, SUZ12 2–739; all full-length; with N-terminal Flag-tag on EED and N-terminal His-tag on all others; MW = 333.8 kDa; Genbank Accession # NM_001203247, NM_001114176, NM_003797, NM_005610, NM_015355), or the human recombinant G9a (residues 913–1193, C-terminus; with an N-terminal His-tag; MW = 34.6 kDa; Genbank Accession # NM_006709.3), or the human recombinant MLL1 complex (including MLL1 residues 3745–3969, C-terminus, WDR5 22–334, C-terminus, RbBP5 1–538, C-terminus, ASH2L 2–534, C-terminus, DPY-30 1–99, C-terminus; N-terminal His-tag on all subunits; MW = 212.0 kDa; Genbank Accession # NM_005933, NM_017588, NM_005057, NM_001105214, NM_0325742), or the human recombinant SET7/9 (residues 2–366, C-terminus; with a N-terminal GST-tag and a C-terminal His-tag; MW = 68.5 kDa; Genbank Accession # NM_030648), or the human recombinant SMYD3 (residues 2–428, C-terminus; C-terminal His-tag; MW = 50.1 kDa; Genbank Accession # NM_001167740), or the human recombinant SUV39H2 (residues 46–410, C-terminus; N-terminal fusion protein with a C-terminal His-tag; MW = 98.8 kDa; GenBank Accession No. NM_001193424), or the human recombinant DOT1L (residues 1–416; N-terminal GST-tag; MW = 80.0 kDa; Genbank Accession # NM_032482) was added to a solution of the proper substrate (oligo nucleosomes for ASH1L, MLL1 complex, and DOT1L, final concentration 0.05 mg/mL; core histone for EZH2 complex and SET7/9, final concentration 0.05 mg/mL; histone H3 for SUV39H2, final concentration 5 μM; histone H3 1–21 for G9a, final concentration 2.5 μM) in freshly prepared reaction buffer (50 mM Tris-HCl (pH 8.5), 5 mM MgCl2, 50 mM NaCl, 1 mM DTT, 1 mM PMSF, 1% DMSO) and gently mixed. […] After incubation for 60 min at 30 °C, the reaction mixture was delivered to filter paper for detection (as assessed by scintillation). […] Values obtained for each compound are mean ± SD determined for two separate experiments.

[2] = target: T2, SUV39H2/KMT1B (Homo sapiens, UniProt Q9H5I1); experiment: HotSpot KMT activity assay, SUV39H2; settings: read-out: % SUV39H2 residual activity
T2 construct: the human recombinant SUV39H2 (residues 46–410, C-terminus); His (C); purchased Reaction Biology Corporation
T2 sequence (Q9H5I1 46-410): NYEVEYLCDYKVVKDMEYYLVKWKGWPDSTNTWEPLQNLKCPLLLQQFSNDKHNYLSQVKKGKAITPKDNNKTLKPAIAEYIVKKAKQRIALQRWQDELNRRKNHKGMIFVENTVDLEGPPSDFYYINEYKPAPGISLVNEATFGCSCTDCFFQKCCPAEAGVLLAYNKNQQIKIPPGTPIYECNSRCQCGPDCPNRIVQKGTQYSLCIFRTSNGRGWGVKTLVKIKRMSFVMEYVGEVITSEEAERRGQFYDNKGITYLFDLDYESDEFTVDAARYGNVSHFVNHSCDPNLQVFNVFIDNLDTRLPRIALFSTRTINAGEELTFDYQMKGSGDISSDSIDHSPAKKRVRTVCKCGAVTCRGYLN
Text: as §1

[3] = target: T3, SMYD3/KMT3E (Homo sapiens, UniProt Q9H7B4); experiment: HotSpot KMT activity assay, SMYD3; settings: read-out: % SMYD3 residual activity
T3 construct: the human recombinant SMYD3 (residues 2–428, C-terminus); C-terminal His-tag; His (C); purchased Reaction Biology Corporation
T3 sequence (Q9H7B4 2-428): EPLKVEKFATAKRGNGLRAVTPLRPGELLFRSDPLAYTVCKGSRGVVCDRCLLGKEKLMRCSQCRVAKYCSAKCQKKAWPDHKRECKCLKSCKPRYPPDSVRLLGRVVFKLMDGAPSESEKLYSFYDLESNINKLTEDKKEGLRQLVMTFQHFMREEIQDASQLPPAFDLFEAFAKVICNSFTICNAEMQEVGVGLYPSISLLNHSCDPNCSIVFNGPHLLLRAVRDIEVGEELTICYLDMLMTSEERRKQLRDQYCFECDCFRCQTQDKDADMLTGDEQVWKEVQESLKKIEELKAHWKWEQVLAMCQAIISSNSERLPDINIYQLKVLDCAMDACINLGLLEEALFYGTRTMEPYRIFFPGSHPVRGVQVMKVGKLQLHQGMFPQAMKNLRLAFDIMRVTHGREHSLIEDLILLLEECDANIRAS
Text: as §1

remaining activity at 10 µM ([1]; 10 μM): 86.3 ± 1.4% | remaining activity at 100 µM ([1]; 100 μM): 53.33 ± 0.38% | remaining activity at 10 µM ([2]; 10 μM): 89.7 ± 1.08% | remaining activity at 100 µM ([2]; 100 μM): 83.76 ± 0.22% | remaining activity at 10 µM ([3]; 10 μM): 99.1 ± 1.41% | remaining activity at 100 µM ([3]; 100 μM): 74.2 ± 1.8%
Structure (SMILES): COC(=O)c1cc(O)c2cc(NC(=O)NCCCNC(=N)NC[C@H]3O[C@@H](n4cnc5c(N)ncnc54)[C@H](O)[C@@H]3O)cc(C(F)(F)F)c2c1 [1j, Methyl 6-(3-(3-(3-(((2R,3S,4R,5R)-5-(6-Amino-9H-purin-9-yl)-3,4-dihydroxytetrahydrofuran-2-yl)methyl)guanidino)propyl)ureido)-4-hydroxy-8-(trifluoromethyl)-2-naphthoate]
